This note sets out measurements from patent US4601984A, “Process to produce antibiotics X-14873 A, G and H” (Hoffmann-La Roche Inc., priority 1983, dated 1986).

In general, LD50 refers to the dose at which mortality reaches 50%. A lower LD50 goes with a more toxic substance. What is called zone of inhibition is the extent of the growth-free halo in a diffusion test. Lower therefore signals little suppression of growth.

Data set [1] concerns Staphylococcus aureus Smith. The data set can be described thus: Minimum Inhibitory Concentration. Type of data set: cell-based.
The subject of data set [2] is Escherichia coli 257. Put plainly: Minimum Inhibitory Concentration. Type of data set: cell-based.
Data set [3] deals with Salmonella typhi P58A. The data set can be described thus: Minimum Inhibitory Concentration. Type of data set: cell-based. To be noted: Salmonella enterica, read-out: Minimum Inhibitory Concentration.
The test system of data set [4] is Klebsiella pneumoniae A. Put plainly: Minimum Inhibitory Concentration. Type of data set: cell-based.
Data set [5] concerns Proteus mirabilis 190. Put plainly: Minimum Inhibitory Concentration. Type of data set: cell-based.
Data set [6] deals with Pseudomonas aeruginosa B. The data set can be described thus: Minimum Inhibitory Concentration. Type of data set: cell-based.
In data set [7] the test system is Serratia marcescens SM. Put plainly: Minimum Inhibitory Concentration. Type of data set: cell-based.
Data set [8] deals with Enterobacter cloacae 5699. The data set can be described thus: Minimum Inhibitory Concentration. The class given is cell-based.
Data set [9] concerns Trichophyton mentagrophytes. Put plainly: Minimum Inhibitory Concentration. The class given is cell-based.
Data set [10] relates to Microsporum audouini. The data set can be described thus: Minimum Inhibitory Concentration. The class given is cell-based.
The subject of data set [11] is Streptococcus faecium. Put plainly: Minimum Inhibitory Concentration. Type of data set: cell-based. To be noted: Enterococcus faecium, ATCC8043; Streptococcus faecium ATCC 8043.
For data set [12], the system named is Staphylococcus aureus. The data set can be described thus: Minimum Inhibitory Concentration. Type of data set: cell-based. Conditions: ATCC6538P; Staphylococcus aureus ATCC 6538P.
The subject of data set [13] is Sarcina lutea. The data set can be described thus: Minimum Inhibitory Concentration. To be noted: Micrococcus luteus, ATCC9341; Sarcina lutea ATCC 9341. The class given is cell-based.
The subject of data set [14] is Bacillus megaterium. The data set can be described thus: Minimum Inhibitory Concentration. The class given is cell-based. Conditions: Priestia megaterium, ATCC8011; Bacillus megaterium ATCC 8011.
For data set [15], the system named is Bacillus sp. E. Put plainly: Minimum Inhibitory Concentration. The class given is cell-based. To be noted: ATCC27359; Bacillus sp. E ATCC 27359.
Data set [16] has as its system Bacillus subtilis. Put plainly: Minimum Inhibitory Concentration. Type of data set: cell-based. Conditions: NRRL558; Bacillus subtilis NRRL 558.
The test system of data set [17] is Bacillus sp. TA. The data set can be described thus: Minimum Inhibitory Concentration. The class given is cell-based. To be noted: ATCC27860; Bacillus sp. TA ATCC 27860.
In data set [18] the test system is Mycobacterium phlei. Put plainly: Minimum Inhibitory Concentration. Type of data set: cell-based. To be noted: Mycolicibacterium phlei, ATCC355; Mycobacterium phlei ATCC 355.
For data set [19], the system named is Streptomyces cellulosae. Put plainly: Minimum Inhibitory Concentration. To be noted: ATCC3313; Streptomyces cellulosae ATCC 3313. Type of data set: cell-based.
The test system of data set [20] is Paecilomyces varioti. The data set can be described thus: Minimum Inhibitory Concentration. Conditions: ATCC25820; Paecilomyces varioti ATCC 25820. The class given is cell-based.
Data set [21] has as its system Penicillum digitatum. Put plainly: Minimum Inhibitory Concentration. Type of data set: cell-based. Conditions: Penicillum digitatum ATCC 26821.
Data set [22] has as its system Candida albicans. The data set can be described thus: Minimum Inhibitory Concentration. The class given is cell-based. To be noted: NRRL477; Candida albicans NRRL 477.
The subject of data set [23] is Saccharomyces cerevisiae. The data set can be described thus: Minimum Inhibitory Concentration. Conditions: ATCC4226; Saccharomyces cerevisiae ATCC 4226. Type of data set: cell-based.
Data set [24] deals with volatile fatty acids produced in the rumen. Put plainly: Ratio of volatile fatty acids produced in the rumen (GLC). Type of data set: in vivo, steer. Conditions: for VFA Ratio: C3/(C2 + nC4): ± one standard deviation, 3 animals.
The subject of data set [25] is ruminants. The data set can be described thus: Growth promotion and feed utilization in ruminants. The class given is in vivo, e.g. cattle.
For data set [26], the system named is Treponema hyodysenteriae. Put plainly: Minimum inhibitory concentration against the agent of swine dysentery. The class given is cell-based. Conditions: Brachyspira hyodysenteriae.
The test system of data set [27] is E. tenella. The data set can be described thus: In vitro coccidiostatic activity. The class given is cell-based. To be noted: Eimeria tenella, read-out: in vitro activity against E. tenella, active concentration.
Data set [28] has as its system gram-positive bacteria. Put plainly: Activity against gram-positive bacteria, summary. The class given is cell-based.
The nature of data set [29]: Oral toxicity (LD50) in mice, 24 hours. Conditions: mouse, in vivo.
The test system of data set [30] is Strain X-14873. Put plainly: Streptomycin sensitivity of the producing strain (disc). The class given is cell-based, Streptomyces sp. X-14873. To be noted: Streptomyces, X14873; 10 mcg in 1/4" disc.
The mark [31] stands for this setting: Medication day 2, 30 g/ton in ration, nonmedicated 0.211 ± 0.019.
The mark [32] stands for this setting: Medication day 5, 30 g/ton in ration, nonmedicated 0.248 ± 0.058.
Where [33] appears, read: Medication day 7, 30 g/ton in ration, nonmedicated 0.325 ± 0.166.
The mark [34] stands for this setting: Medication day 9, 30 g/ton in ration, nonmedicated 0.338 ± 0.164.
The mark [35] stands for this setting: Medication day 12, 30 g/ton in ration, nonmedicated 0.293 ± 0.148.
[36] abbreviates: Pre-medication day 1 (baseline).
The mark [37] stands for this setting: Pre-medication day 3 (baseline).
Setting [38] is: Pre-medication day 5 (baseline).
The mark [39] stands for this setting: Pre-medication day 8 (baseline).
Where [40] appears, read: Pre-medication day 10 (baseline).

SMILES strings stand for the structures. Values after ≈ are worked out from the molar mass of the structure shown. Some results are limits rather than exact numbers.

Regarding `CCC(C(=O)C(C)C(O)C(C)C1OC(O)(CC(=O)O)C(CC)C(O)C1C)C1OC(C)(C2(O)OC(CC)(C(O)CC)CC2C)CC1C` (stereo not drawn) [Antibiotic X-14873A], the MIC in [1] amounted to 64 µg/mL (≈ 97.1 µM); in [2], 128 µg/mL (≈ 194 µM); in data set [3], 128 µg/mL (≈ 194 µM); in data set [4] it was 128 µg/mL (≈ 194 µM); in [5] it was 128 µg/mL (≈ 194 µM); in [6], 128 µg/mL (≈ 194 µM). Further, the MIC in data set [7] turned out to be 128 µg/mL (≈ 194 µM); in [8] it was 128 µg/mL (≈ 194 µM); in [9], 100 µg/mL (≈ 152 µM); in data set [10], 100 µg/mL (≈ 152 µM); in data set [11], 0.1 µg/mL (≈ 0.152 µM); in data set [12], 6.3 µg/mL (≈ 9.56 µM). Moreover, the MIC is 3 µg/mL (≈ 4.55 µM) in data set [13]; 3 µg/mL (≈ 4.55 µM) in data set [14]; 0.8 µg/mL (≈ 1.21 µM) in data set [15]; 3 µg/mL (≈ 4.55 µM) in data set [16]; 3 µg/mL (≈ 4.55 µM) in data set [17]; 3 µg/mL (≈ 4.55 µM) in data set [18]. Moreover, the MIC in data set [19] came to 12.5 µg/mL (≈ 19 µM); in data set [20] it was 125 µg/mL (≈ 190 µM); in data set [21], 500 µg/mL (≈ 759 µM); in [22], 62.5 µg/mL (≈ 94.9 µM); in data set [23] it was 500 µg/mL (≈ 759 µM); in [26], 5 µg/mL (≈ 7.59 µM). For the same molecule, in data set [24] (30 g/ton, compared with lasalocid), the “increase over control of the volatile fatty acid ratio vs lasalocid” value was “greater increase over control of the volitile fatty acid ratio than lasalocid”. Besides, the “VFA Ratio: C3/(C2 + nC4)” value in data set [24] (setting [31]) stood at 0.445 ± 0.075; in [24] (setting [32]), 0.584 ± 0.328; in [24] (setting [33]) it was 0.679 ± 0.448; in data set [24] (setting [34]), 0.642 ± 0.387; in data set [24] (setting [35]), 0.495 ± 0.242; in [24] (setting [36]) it was 0.213 ± 0.016. Further, the “VFA Ratio: C3/(C2 + nC4)” value is reported as 0.235 ± 0.036 in [24] (setting [37]), 0.234 ± 0.042 in [24] (setting [38]), 0.245 ± 0.046 in [24] (setting [39]) and 0.216 ± 0.038 in [24] (setting [40]). Also, the “efficiency of feed utilization in ruminant animals” value in data set [25] (administered orally) was “increases the efficiency of feed utilization”. In addition, in [25] (ruminants, e.g. cattle), the “activity as a growth promotant in ruminants” value is reported as “exhibit activity as a growth promotant in ruminants”. In addition, the minimal effective concentration in [27] amounted to 200 µg/mL. The “effect on growth of gram-positive bacteria” value (from here on “effect on growth”) in data set [28] is on record as “adversely affecting the growth of certain gram-positive bacteria”. In [29], this molecule returned an LD50 at 24 h of 120 mg/kg.
Consider `CCC(C(=O)C(C)C(O)C(C)C1OC(C)(O)C(CC)C(O)C1C)C1OC(C)(C23OC(CC)C(CC)(CC2C)O3)CC1C` (stereo not drawn) [Antibiotic X-14873G], for which the MIC was 63 µg/mL (≈ 106 µM) in data set [11]; more than 1000 µg/mL in data set [12]; more than 1000 µg/mL in data set [13]; more than 1000 µg/mL in [14]; 8 µg/mL (≈ 13.4 µM) in [15]; more than 1000 µg/mL in data set [16]. Also, the MIC in data set [17], in data set [18], in data set [19], in data set [20], in data set [21] and in data set [22] was more than 1000 µg/mL throughout. For the same molecule, the MIC in [23] is more than 1000 µg/mL. The “effect on growth” value in [28] is “adversely affecting the growth of certain gram-positive bacteria”. In data set [29], the LD50 at 24 h turned out to be 4000 mg/kg.
For `CCC(C(=O)C(C)C(O)C(C)C1OC(C)(O)C(CC)C(O)C1C)C1OC(C)(C2(O)OC(CC)(C(O)CC)CC2C)CC1C` (stereo not drawn) [Antibiotic X-14873H], the MIC in [11] stood at 2 µg/mL (≈ 3.25 µM); in [12], 8 µg/mL (≈ 13 µM); in [13] it was 16 µg/mL (≈ 26 µM); in data set [14], 4 µg/mL (≈ 6.51 µM); in [15] it was 2 µg/mL (≈ 3.25 µM); in [16], 16 µg/mL (≈ 26 µM). The MIC was 8 µg/mL (≈ 13 µM) in [17]; more than 1000 µg/mL in data set [18]; more than 1000 µg/mL in data set [19]; more than 1000 µg/mL in data set [20]; more than 1000 µg/mL in data set [21]; more than 1000 µg/mL in data set [22]. The MIC in data set [23] was more than 1000 µg/mL. The “effect on growth” value in data set [28] was “adversely affecting the growth of certain gram-positive bacteria”. In [29], the LD50 at 24 h is 4000 mg/kg.
Turning to `CC[C@@H](C(=O)[C@@H](C)[C@@H](O)[C@H](C)CCc1ccc(C)c(O)c1C(=O)O)[C@H]1O[C@](CC)([C@H]2CC[C@](O)(CC)[C@H](C)O2)C[C@@H]1C` [Lasalocid, lasalocid, reference compound], the “VFA Ratio: C3/(C2 + nC4)” value in data set [24] (setting [31]) was 0.376 ± 0.109; in data set [24] (setting [32]) it was 0.390 ± 0.073; in data set [24] (setting [33]), 0.373 ± 0.015; in data set [24] (setting [34]), 0.381 ± 0.064; in [24] (setting [35]) it was 0.372 ± 0.056; in data set [24] (setting [36]) it was 0.229 ± 0.013. The “VFA Ratio: C3/(C2 + nC4)” value in data set [24] (setting [37]) is 0.255 ± 0.051; in [24] (setting [38]) it was 0.244 ± 0.060; in [24] (setting [39]), 0.236 ± 0.041; in data set [24] (setting [40]), 0.224 ± 0.011.
The molecule `[H]/N=C(/N)N[C@H]1[C@H](O)[C@@H](O)[C@H](O[C@@H]2O[C@@H](C)[C@](O)(C=O)[C@H]2O[C@@H]2O[C@@H](CO)[C@H](O)[C@@H](O)[C@@H]2NC)[C@@H](N/C(N)=N\[H])[C@@H]1O` [Streptomycin] had a zone of inhibition at 10 µg/disc in [30] of 13 mm.
